Experimental data as given in patent US20100009970A1, “COMPOSITIONS AND METHODS FOR TREATMENT OF VIRAL DISEASES” (Combinatorx (Singapore) Pte. Ltd., priority 2008, published 2010).
Counter-ions that a name gives are not always drawn. Like-named read-outs stand apart in the source and are kept apart here.

Assays:
in vitro = conditions: human
[1] = tested on: Huh7 cells expressing a subgenomic RNA replicon of Con1 (genotype 1b) sequence origin; assay: microbe, parasite or virus in culture; conditions: Hepatitis C virus
[2] = Huh-7, read-out: IC50 (uM) [SG]
[3] = Huh-7, read-out: Max Effect@CC30 (inhibition)
[4] = GETYPE1B, Huh-7, 72 h, read-out: Max Effect @CC30 (inhibition)

With `CC(=O)N(C)c1ccc2c(c1)[C@@H](N(C)C)CC[C@H]2c1ccc(Cl)c(Cl)c1` the CC50 (in vitro; CC50 (uM) [SG]) was 14.6 µM, the IC50 [1, 2] was 3.79 µM and the Emax [1, 3] was 91.7%.

In the case of `CN[C@@H]1CC[C@H](c2ccc(Cl)c(Cl)c2)c2ccccc21` [1R,4R Sertraline Enantiomer, (1R,4R)-4-(3,4-dichlorophenyl)-N-methyl-1,2,3,4-tetrahydronaphthalen-1-amine], the CC50 at 72 h (in vitro; CC50 (uM)) is reported as 14.3 µM, the CC50 (in vitro; CC50 (uM) [SG]) is reported as 14.6 ± 0.37 µM and the Emax [1, 4] is reported as 42%. For the same compound, the Emax [1, 3] was 58.7 ± 23.6%.

In the case of `CN(CCO)[C@H]1CC[C@@H](c2ccc(Cl)c(Cl)c2)c2ccc(C[S+](C)[O-])cc21` (stereo partly drawn) [2-(((1S,4S)-4-(3,4-dichlorophenyl)-7-(methylsulfinylmethyl)-1,2,3,4-tetrahydronaphthalen-1-yl)(methyl)amino)ethanol], the CC50 (in vitro; CC50 (uM) [SG]) is reported as over 50 µM and the IC50 [1, 2] is reported as 24.2 µM.

With `O=C1CC[C@@H](c2ccc(Cl)c(Cl)c2)c2ccccc21` [4S-Sertraline Ketone, (S)-4-(3,4-dichlorophenyl)-3,4-dihydronaphthalen-1(2H)-one] the CC50 (in vitro; CC50 (uM) [SG]) was over 50 µM, the IC50 [1, 2] was 32.6 µM and the Emax [1, 3] was 77%.

`CN[C@H]1CC[C@@H](c2ccc(Cl)c(Cl)c2)c2ccc(CS(=O)(=O)c3ccccc3)cc21` [(1S,4S)-4-(3,4-dichlorophenyl)-N-methyl-7-(phenylsulfonylmethyl)-1,2,3,4-tetrahydronaphthalen-1-amine] showed a CC50 (in vitro; CC50 (uM) [SG]) of 6.7 µM and an IC50 [1, 2] of 6.24 µM.

`N[C@H]1CC[C@@H](c2ccc(Cl)c(Cl)c2)c2ccccc21` [(1S,4S)-Desmethyl Sertraline, (1S,4S)-4-(3,4-dichlorophenyl)-1,2,3,4-tetrahydronaphthalen-1-amine] gave a CC50 (in vitro; CC50 (uM)) of 8.98 ± 0.1 µM, a CC50 (in vitro; CC50 (uM) [SG]) of 8.98 ± 0.1 µM and an Emax [1, 4] of 0%. The IC50 ([1]; Huh-7, 72 h) was 7.5 ± 0.4 µM, the IC50 [1, 2] was 7.5 µM and the Emax [1, 3] was 0%.

For `CN(C)[C@H]1CC[C@@H](c2ccc(Cl)c(Cl)c2)c2ccc(C(=O)NCC3CC3)cc21` [(5S,8S)—N-(cyclopropylmethyl)-5-(3,4-dichlorophenyl)-8-(dimethylamino)-5,6,7,8-tetrahydronaphthalene-2-carboxamide], the CC50 (in vitro; CC50 (uM) [SG]) was 19.4 µM, the IC90 ([1]; Huh-7) was 12.2 µM and the IC50 [1, 2] was 5.61 µM.

In the case of `CN(C)[C@H]1CC[C@@H](c2ccc(Cl)c(Cl)c2)c2ccc(C(=O)NC3CCC3)cc21` [(5S,8S)—N-cyclobutyl-5-(3,4-dichlorophenyl)-8-(dimethylamino)-5,6,7,8-tetrahydronaphthalene-2-carboxamide], the CC50 (in vitro; CC50 (uM) [SG]) is reported as 13.4 µM and the IC50 [1, 2] is reported as 5.78 µM.

With `CN(C)[C@H]1CC[C@@H](c2ccc(Cl)c(Cl)c2)c2ccc(C(=O)NC3CC3)cc21` [(5S,8S)—N-cyclopropyl-5-(3,4-dichlorophenyl)-8-(dimethylamino)-5,6,7,8-tetrahydronaphthalene-2-carboxamide] the CC50 (in vitro; CC50 (uM) [SG]) was 25.4 µM and the IC50 [1, 2] was 7.3 µM.

Work on `CNc1cc(S(N)(=O)=O)ccc1Oc1ccc(SC)c(C)c1` [Compound 62, 4-(3-methyl-4-(methylthio)phenoxy)-3-(methylamino)benzenesulfonamide] yielded a CC50 (in vitro; CC50 (uM) [SG]) of over 50 µM.

Work on `CO[C@H]1/C=C/O[C@@]2(C)Oc3c(C)c(O)c4c(c3C2=O)C2=NC3(CCN(CC(C)C)CC3)NC2=C(NC(=O)/C(C)=C\C=C\[C@H](C)[C@H](O)[C@@H](C)[C@@H](O)[C@@H](C)[C@H](OC(C)=O)[C@@H]1C)C4=O` [Rifabutin, reference compound] yielded an IC50 ([1]; Huh-7) of 17.2 µM.

With `CO[C@H]1/C=C/O[C@@]2(C)Oc3c(C)c(O)c4c(O)c(c5c(nc6cc(C)ccn65)c4c3C2=O)NC(=O)/C(C)=C\C=C\[C@H](C)[C@H](O)[C@@H](C)[C@@H](O)[C@@H](C)[C@H](OC(C)=O)[C@@H]1C` [Rifaximin, reference compound] the IC50 ([1]; Huh-7) was 19.4 µM.

In the case of `CC(C)c1nc(CN(C)C(=O)N[C@H](C(=O)N[C@@H](Cc2ccccc2)C[C@H](O)[C@H](Cc2ccccc2)NC(=O)OCc2cncs2)C(C)C)cs1` [Ritonavir, reference compound], the IC50 ([1]; Huh-7) is reported as 14.9 µM.

With `Oc1ccc(-c2nc(-c3ccc(F)cc3)c(-c3ccncc3)[nH]2)cc1` [SB-202190, reference compound] the IC50 ([1]; Huh-7) was 5.18 µM.

With `CN/C(=N\c1ccc(C2=NNC(=O)CC2C)cc1)NC#N` (stereo not drawn) [Siguazodan, reference compound] the IC50 ([1]; Huh-7) was 2.2 µM.

Compound `CCC(C)(C)C(=O)O[C@H]1C[C@@H](C)C=C2C=C[C@H](C)[C@H](CC[C@@H](O)C[C@@H](O)CC(=O)O)[C@H]21` [Simvastatin hydroxy acid, ammonium salt, simvastatin hydroxy acid, ammonium salt, reference compound] has an IC50 ([1]; Huh-7) of 13.4 µM.

For `CCC(C)(C)C(=O)O[C@H]1C[C@@H](C)C=C2C=C[C@H](C)[C@H](CC[C@@H]3C[C@@H](O)CC(=O)O3)[C@H]21` [Simvastatin, simvastatin, reference compound], the IC50 ([1]; Huh-7) was 21.3 µM.

`C[C@]12Cc3c[nH]nc3C[C@@H]1CC[C@@H]1[C@@H]2CC[C@@]2(C)[C@H]1CC[C@]2(C)O` [Stanozolol, stanozolol, reference compound] gave an IC50 ([1]; Huh-7) of 15.2 µM.

`O=C(CCCCCCC(=O)NO)NO` [Suberohydroxamic acid, suberohydroxamic acid, reference compound] gave an IC50 ([1]; Huh-7) of 4.02 µM.

`CCCCCCCCCCCCCCOc1ccc(C(=O)O)o1` [TOFA, 5-(tetradecyloxy)-2-furancarboxylic acid, reference compound] gave an IC50 ([1]; Huh-7) of 5.53 µM.

Compound `CCC[C@H](NC(=O)[C@@H]1[C@H]2CCC[C@H]2CN1C(=O)[C@@H](NC(=O)[C@@H](NC(=O)c1cnccn1)C1CCCCC1)C(C)(C)C)C(=O)C(=O)NC1CC1` [Telaprevir (VX-950), vx-950, reference compound] has an IC50 ([1]; Huh-7) of 0.529 µM.

Work on `CC(C)N1CCN(c2ccc(OCC3COC(Cn4cncn4)(c4ccc(Cl)cc4Cl)O3)cc2)CC1` (stereo not drawn) [Terconazole, reference compound] yielded an IC50 ([1]; Huh-7) of 2.55 µM.

`C/C=C(/C)C(=O)O[C@H]1C(C)=C2[C@H]([C@@H]1OC(=O)CCCCCCC)[C@@](C)(OC(C)=O)C[C@H](OC(=O)CCC)[C@@]1(O)[C@H]2OC(=O)[C@@]1(C)O` [Thapsigargin, reference compound] showed an IC50 ([1]; Huh-7) of 0.0113 µM.

Compound `C=C(NC(=O)C(=C)NC(=O)c1csc(C2=N[C@@H]3c4csc(n4)[C@H]4NC(=O)c5csc(n5)[C@H]([C@](C)(O)[C@@H](C)O)NC(=O)[C@H]5CSC(=N5)/C(=C/C)NC(=O)[C@H]([C@@H](C)O)NC(=O)c5csc(n5)[C@]3(CC2)NC(=O)[C@H](C)NC(=O)C(=C)NC(=O)[C@H](C)NC(=O)[C@H]([C@@H](C)CC)N[C@@H]2C=Cc3c([C@H](C)O)cc(nc3[C@H]2O)C(=O)O[C@@H]4C)n1)C(N)=O` [Thiostrepton, reference compound] has an IC50 ([1]; Huh-7) of 3.84 µM.

In the case of `CN(C)C(=S)SSC(=S)N(C)C` [Thiram, thiram], the IC50 ([1]; Huh-7) is reported as 3.64 µM.

Work on `O=c1oc2cc(O)ccc2s1` [Tioxolone, reference compound] yielded an IC50 ([1]; Huh-7) of 16.2 µM.

`Nc1n[n+]([O-])c2ccccc2[n+]1[O-]` [Tirapazamine, reference compound] gave an IC50 ([1]; Huh-7) of 1.83 µM.

For `O=C(O)Cc1cc(I)c(Oc2ccc(O)c(I)c2)c(I)c1` [Tiratricol, reference compound], the IC50 ([1]; Huh-7) was 15.6 µM.

With `Cc1ccc(O)c([C@H](CCN(C(C)C)C(C)C)c2ccccc2)c1` [Tolterodine (e.g., tartrate), Tolterodine, reference compound] the IC50 ([1]; Huh-7) was 27.2 µM.

In the case of `CC[C@@]1(O)C(=O)OCc2c1cc1n(c2=O)Cc2cc3c(CN(C)C)c(O)ccc3nc2-1` [Topotecan (e.g., hydrochloride), topotecan, reference compound], the IC50 ([1]; Huh-7) is reported as 0.095 µM.

Compound `CN(C)CCOc1ccc(/C(=C(/CCCl)c2ccccc2)c2ccccc2)cc1` [Toremifene, reference compound] has an IC50 ([1]; Huh-7) of 15.9 µM.

For `COc1cc2c(cc1OC)-c1c/c(=N\c3c(C)cc(C)cc3C)n(C)c(=O)n1CC2` [Trequinsin (e.g., hydrochloride), Trequinsin, reference compound], the IC50 ([1]; Huh-7) was 2.93 µM.

With `CN1CCN(CCCN2c3ccccc3Sc3ccc(C(F)(F)F)cc32)CC1` [Trifluoperazine (e.g., hydrochloride), Trifluoperazine, reference compound] the IC50 ([1]; Huh-7) was 4.97 µM.

`O=C(CCCN1CCC(O)(c2cccc(C(F)(F)F)c2)CC1)c1ccc(F)cc1` [Trifluperidol, reference compound] showed an IC50 ([1]; Huh-7) of 7.8 µM.

In the case of `O=c1[nH]c(=O)n([C@H]2C[C@H](O)[C@@H](CO)O2)cc1C(F)(F)F` [Trifluridine, trifluridine, reference compound], the IC50 ([1]; Huh-7) is reported as 0.38 µM.

`CC(CN(C)C)CN1c2ccccc2CCc2ccccc21` (stereo not drawn) [Trimipramine (e.g., maleate), Trimipramine, reference compound] showed an IC50 ([1]; Huh-7) of 15.6 µM.

`O=C1CC(=O)c2c(Cl)c(Cl)c(Cl)c(Cl)c21` [UCH-L3 inhibitor, 4,5,6,7-Tetrachloroindan-1,3-dione, reference compound] showed an IC25 ([1]; GETYPE1B, Huh-7, read-out: IC25 (values noted with an asterisk)) of 19.7 µM.

Compound `CC(C)[C@H](N)C(=O)O[C@@H]1[C@@H](CO)O[C@@H](n2ccc(N)nc2=O)[C@]1(C)O` [Valopicitabine (NM-283), Valopicitabine, reference compound] has an IC50 ([1]; Huh-7) of 11.2 µM.

`COc1cc(C=O)ccc1O` [Vanillin (e.g., acetate), Vanillin] showed an IC50 ([1]; Huh-7) of 3.73 µM.

Compound `Nc1ncnc2c1ncn2[C@@H]1O[C@H](CO)[C@@H](O)[C@@H]1O` [Vidarabine, vidarabine, reference compound] has an IC50 ([1]; Huh-7) of 26.7 µM.

In the case of `CC[C@]1(O)C[C@H]2CN(CCc3c([nH]c4ccccc34)[C@@](C(=O)OC)(c3cc4c(cc3OC)N(C=O)[C@H]3[C@@](O)(C(=O)OC)[C@H](OC(C)=O)[C@]5(CC)C=CCN6CC[C@]43[C@@H]65)C2)C1` [Vincristine (e.g., sulfate), Vincristine, reference compound], the IC50 ([1]; Huh-7) is reported as 0.02 µM.

In the case of `COC[C@H]1OC(=O)c2coc3c2[C@@]1(C)C1=C(C3=O)[C@@H]2CCC(=O)[C@@]2(C)C[C@H]1OC(C)=O` [Wortmannin, wortmannin, reference compound], the IC50 ([1]; Huh-7) is reported as 3.16 µM.

`COc1cc(C(=O)NS(=O)(=O)c2ccccc2C)ccc1Cc1cn(C)c2ccc(NC(=O)OC3CCCC3)cc12` [Zafirlukast, reference compound] showed an IC50 ([1]; Huh-7) of 18.5 µM and an IC50 ([1]; Huh-7, read-out: IC50 in our hands) of 18.5 µM.

Work on `CN(C)C/C=C(/c1ccc(Br)cc1)c1cccnc1` [Zimelidine (e.g., dihydrochloride), Zimelidine, reference compound] yielded an IC50 ([1]; Huh-7) of 15.1 µM.
